From patent US10927389B2, “Method of producing chemical substance by continuous fermentation” (Toray Industries, Inc., priority 2014, dated 2021)

How the values were obtained:
[1] = system: Saccharomyces cerevisiae NBRC 2260 strain; assay: Vanillin resistance test; assay type: cell-based; settings: strain NBRC 2260; vanillin 1 g/L in YPAD medium, 30° C., 40 hours; absorbance at 600 nm with vanillin ÷ without ×100
Description: (§2) The Saccharomyces cerevisiae NBRC 10505 strain was inoculated using a platinum loop to 20-ml test tubes each containing 5 ml of YPAD medium, and then cultured with shaking at 30° C. overnight (preculture). The YPAD medium had the following composition: 1% (w/v) yeast extract, 2% (w/v) bactopeptone, 2% (w/v) glucose, and 0.04% (w/v) adenine. A vanillin concentrate (200 g/L in DMSO) was prepared, and 25 μL of the vanillin concentrate was added to 5 ml of YPAD medium so that the final concentration became 1 g/L. To provide vanillin-free YPAD medium, 25 μl of DMSO alone was added to YPAD medium. The preculture liquid was inoculated to the YPAD medium (with vanillin) and the vanillin-free YPAD medium such that OD became 0.2, and culture was performed at 30° C. for 40 hours. After the culture, OD 600 nm of the culture liquid of each strain was measured, and a value was calculated according to Equation (6). Absorbance at 600 nm of YPAD medium (with vanillin)÷absorbance at 600 nm of YPAD medium×100 (6).

[2] = system: Kluyveromyces marxianus NBRC 272 strain; assay: Vanillin resistance test; assay type: cell-based; settings: strain NBRC 272; vanillin 1 g/L in YPAD medium, 30° C., 40 hours; absorbance at 600 nm with vanillin ÷ without ×100
Description: (§3) The YPAD medium had the following composition: 1% (w/v) yeast extract, 2% (w/v) bactopeptone, 2% (w/v) glucose, and 0.04% (w/v) adenine. A vanillin concentrate (200 g/L in DMSO) was prepared, and 25 μL of the vanillin concentrate was added to 5 ml of YPAD medium so that the final concentration became 1 g/L. To provide vanillin-free YPAD medium, 25 μl of DMSO alone was added to YPAD medium. The preculture liquid was inoculated to the YPAD medium (with vanillin) and the vanillin-free YPAD medium such that OD became 0.2, and culture was performed at 30° C. for 40 hours. After the culture, OD 600 nm of the culture liquid of each strain was measured, and a value was calculated according to Equation (6). Absorbance at 600 nm of YPAD medium (with vanillin)÷absorbance at 600 nm of YPAD medium×100 (6).
The Kluyveromyces marxianus NBRC 272 strain was tested by the same method as in Reference Example 5, and values were calculated according to Equation (6) and Equation (7) (Table 1).

[3] = system: Candida methanosorbosa BCRC 21489 strain; assay: Vanillin resistance test; assay type: cell-based; settings: strain BCRC 21489; vanillin 1 g/L in YPAD medium, 30° C., 40 hours; absorbance at 600 nm with vanillin ÷ without ×100
Description: The Candida methanosorbosa BCRC 21489 strain was tested by the same method as in Reference Example 5, and values were calculated according to Equation (6) and Equation (7) (Table 1).

[4] = system: Arxula adeninivorans NBRC 10858 strain; assay: Vanillin resistance test; assay type: cell-based; settings: strain NBRC 10858; vanillin 1 g/L in YPAD medium, 30° C., 40 hours; absorbance at 600 nm with vanillin ÷ without ×100
Description: as §2
The Arxula adeninivorans NBRC 10858 strain was tested by the same method as in Reference Example 5, and values were calculated according to Equation (6) and Equation (7) (Table 1).

[5] = system: Saccharomyces cerevisiae NBRC 10505 strain; assay: Vanillin resistance test; assay type: cell-based; settings: strain NBRC 10505; vanillin 1 g/L in YPAD medium, 30° C., 40 hours; absorbance at 600 nm with vanillin ÷ without ×100
Description: as §2

[6] = system: Saccharomyces cerevisiae NBRC 10505/ΔPDC1::LDH strain; settings: strain NBRC 10505 ΔPDC1::LDH; vanillin 1 g/L in YPAD medium, 30° C., 40 hours; absorbance at 600 nm with vanillin ÷ without ×100
Description: as §2

[7] = system: Saccharomyces cerevisiae NITE BP-1089 strain; assay: Vanillin resistance test; assay type: cell-based; settings: strain BP-1089; vanillin 1 g/L in YPAD medium, 30° C., 40 hours; absorbance at 600 nm with vanillin ÷ without ×100
Description: as §2

[8] = system: Candida pignaliae NBRC 10307 strain; assay: Vanillin resistance test; assay type: cell-based; settings: strain NBRC 10307; vanillin 1 g/L in YPAD medium, 30° C., 40 hours; absorbance at 600 nm with vanillin ÷ without ×100
Description: as §3

[9] = system: Saccharomyces cerevisiae NITE BP-1087 strain; assay: Vanillin resistance test; assay type: cell-based; settings: strain BP-1087; vanillin 1 g/L in YPAD medium, 30° C., 40 hours; absorbance at 600 nm with vanillin ÷ without ×100
Description: as §2

[10] = system: Candida tropicalis NBRC 199 strain; assay: Vanillin resistance test; assay type: cell-based; settings: strain NBRC 199; vanillin 1 g/L in YPAD medium, 30° C., 40 hours; absorbance at 600 nm with vanillin ÷ without ×100
[11] = system: Candida boidinii BCRC 22528 strain; assay: Vanillin resistance test; assay type: cell-based; settings: strain BCRC 22528; vanillin 1 g/L in YPAD medium, 30° C., 40 hours; absorbance at 600 nm with vanillin ÷ without ×100
Description: The Candida boidinii BCRC 22528 strain was tested by the same method as in Reference Example 5, and values were calculated according to Equation (6) and Equation (7) (Table 1).

[12] = system: Pichia mexicana NBRC 10320 strain; assay: Vanillin resistance test; assay type: cell-based; settings: strain NBRC 10320; vanillin 1 g/L in YPAD medium, 30° C., 40 hours; absorbance at 600 nm with vanillin ÷ without ×100
Description: The Pichia mexicana NBRC 10320 strain was tested by the same method as in Reference Example 5, and values were calculated according to Equation (6) and Equation (7) (Table 1).

[13] = system: Lindnera fabianii NBRC 1253 strain; assay: Vanillin resistance test; assay type: cell-based; settings: strain NBRC 1253; vanillin 1 g/L in YPAD medium, 30° C., 40 hours; absorbance at 600 nm with vanillin ÷ without ×100
Description: The Lindnera fabianii NBRC 1253 strain was tested by the same method as in Reference Example 5, and a value was calculated according to Equation (6) and Equation (7) (Table 1).

[14] = system: Saccharomyces cerevisiae NBRC 2260/ΔPDC1::LDH strain; settings: strain NBRC 2260 ΔPDC1::LDH; vanillin 1 g/L in YPAD medium, 30° C., 40 hours; absorbance at 600 nm with vanillin ÷ without ×100
Description: as §2

[15] = system: Saccharomyces cerevisiae NITE BP-1088 strain; assay: Vanillin resistance test; assay type: cell-based; settings: strain BP-1088; vanillin 1 g/L in YPAD medium, 30° C., 40 hours; absorbance at 600 nm with vanillin ÷ without ×100
Description: as §2

[16] = system: Pichia stipitis BCRC 21777 strain; assay: Vanillin resistance test; assay type: cell-based; settings: strain BCRC 21777; vanillin 1 g/L in YPAD medium, 30° C., 40 hours; absorbance at 600 nm with vanillin ÷ without ×100
Description: as §3
The Pichia stipitis BCRC 21777 strain was tested by the same method as in Reference Example 5, and values were calculated according to Equation (6) and Equation (7) (Table 1).

[17] = system: Arxula adeninivorans NBRC 10858 strain; assay: Acetone resistance test; assay type: cell-based; settings: strain NBRC 10858; 4% (v/v) acetone in YPAD medium, 30° C., 40 hours; absorbance at 600 nm with acetone ÷ without ×100
Description: (§1) To 5 ml of YPAD medium, 200 μL of acetone was added so that the final concentration became 4% (v/v). […] Absorbance at 600 nm of YPAD medium (with acetone)÷absorbance at 600 nm of YPAD medium×100 (7)

[18] = system: Candida boidinii BCRC 22528 strain; assay: Acetone resistance test; assay type: cell-based; settings: strain BCRC 22528; 4% (v/v) acetone in YPAD medium, 30° C., 40 hours; absorbance at 600 nm with acetone ÷ without ×100
Description: as §1

[19] = system: Saccharomyces cerevisiae NITE BP-1089 strain; assay: Acetone resistance test; assay type: cell-based; settings: strain BP-1089; 4% (v/v) acetone in YPAD medium, 30° C., 40 hours; absorbance at 600 nm with acetone ÷ without ×100
Description: as §1

[20] = system: Pichia stipitis BCRC 21777 strain; assay: Acetone resistance test; assay type: cell-based; settings: strain BCRC 21777; 4% (v/v) acetone in YPAD medium, 30° C., 40 hours; absorbance at 600 nm with acetone ÷ without ×100
Description: as §1

[21] = system: Candida methanosorbosa BCRC 21489 strain; assay: Acetone resistance test; assay type: cell-based; settings: strain BCRC 21489; 4% (v/v) acetone in YPAD medium, 30° C., 40 hours; absorbance at 600 nm with acetone ÷ without ×100
Description: as §1

[22] = system: Lindnera fabianii NBRC 1253 strain; assay: Acetone resistance test; assay type: cell-based; settings: strain NBRC 1253; 4% (v/v) acetone in YPAD medium, 30° C., 40 hours; absorbance at 600 nm with acetone ÷ without ×100
Description: as §1

[23] = system: Candida tropicalis NBRC 199 strain; assay: Acetone resistance test; assay type: cell-based; settings: strain NBRC 199; 4% (v/v) acetone in YPAD medium, 30° C., 40 hours; absorbance at 600 nm with acetone ÷ without ×100
Description: as §1

[24] = system: Saccharomyces cerevisiae NITE BP-1087 strain; assay: Acetone resistance test; assay type: cell-based; settings: strain BP-1087; 4% (v/v) acetone in YPAD medium, 30° C., 40 hours; absorbance at 600 nm with acetone ÷ without ×100
Description: as §1

[25] = system: Saccharomyces cerevisiae NBRC 2260 strain; assay: Acetone resistance test; assay type: cell-based; settings: strain NBRC 2260; 4% (v/v) acetone in YPAD medium, 30° C., 40 hours; absorbance at 600 nm with acetone ÷ without ×100
Description: as §1

[26] = system: Saccharomyces cerevisiae NBRC 10505/ΔPDC1::LDH strain; assay: Acetone resistance test; assay type: cell-based; settings: strain NBRC 10505 ΔPDC1::LDH; 4% (v/v) acetone in YPAD medium, 30° C., 40 hours; absorbance at 600 nm with acetone ÷ without ×100
Description: as §1

[27] = system: Kluyveromyces marxianus NBRC 272 strain; assay: Acetone resistance test; assay type: cell-based; settings: strain NBRC 272; 4% (v/v) acetone in YPAD medium, 30° C., 40 hours; absorbance at 600 nm with acetone ÷ without ×100
Description: as §1

[28] = system: Saccharomyces cerevisiae NBRC 2260/ΔPDC1::LDH strain; assay: Acetone resistance test; assay type: cell-based; settings: strain NBRC 2260 ΔPDC1::LDH; 4% (v/v) acetone in YPAD medium, 30° C., 40 hours; absorbance at 600 nm with acetone ÷ without ×100
Description: as §1

[29] = system: Candida pignaliae NBRC 10307 strain; assay: Acetone resistance test; assay type: cell-based; settings: strain NBRC 10307; 4% (v/v) acetone in YPAD medium, 30° C., 40 hours; absorbance at 600 nm with acetone ÷ without ×100
Description: as §1

[30] = system: Saccharomyces cerevisiae NBRC 10505 strain; assay: Acetone resistance test; assay type: cell-based; settings: strain NBRC 10505; 4% (v/v) acetone in YPAD medium, 30° C., 40 hours; absorbance at 600 nm with acetone ÷ without ×100
Description: as §1

[31] = system: Saccharomyces cerevisiae NITE BP-1088 strain; assay: Acetone resistance test; assay type: cell-based; settings: strain BP-1088; 4% (v/v) acetone in YPAD medium, 30° C., 40 hours; absorbance at 600 nm with acetone ÷ without ×100
Description: as §1

[32] = system: Pichia mexicana NBRC 10320 strain; assay: Acetone resistance test; assay type: cell-based; settings: strain NBRC 10320; 4% (v/v) acetone in YPAD medium, 30° C., 40 hours; absorbance at 600 nm with acetone ÷ without ×100
Description: as §1
As a result, the Pichia mexicana NBRC 10320 strain was found not to be a vanillin-resistant yeast, but found to be an acetone-resistant yeast.

Compound: COc1cc(C=O)ccc1O [Vanillin, vanillin]
- Vanillin resistance test result [1]: 83
- Vanillin resistance test result [2]: 100
- Vanillin resistance test result [3]: 54
- Vanillin resistance test result [4]: 84
- Vanillin resistance test result [5]: 6.8
- Vanillin resistance test result [6]: 6.2
- Vanillin resistance test result [7]: 7.8
- Vanillin resistance test result [8]: 1.9
- Vanillin resistance test result [9]: 9.2
- Vanillin resistance test result [10]: 82
- Vanillin resistance test result [11]: 66
- Vanillin resistance test result [12]: 11
- Vanillin resistance test result [13]: 95
- Vanillin resistance test result [14]: 82
- Vanillin resistance test result [15]: 8.5
- Vanillin resistance test result [16]: 22

Compound: CC(C)=O [Acetone, acetone]
- Acetone resistance test result [17]: 22
- Acetone resistance test result [18]: 49
- Acetone resistance test result [19]: 7.2
- Acetone resistance test result [20]: 1.8
- Acetone resistance test result [21]: 74
- Acetone resistance test result [22]: 111
- Acetone resistance test result [23]: 100
- Acetone resistance test result [24]: 10
- Acetone resistance test result [25]: 86
- Acetone resistance test result [26]: 8
- Acetone resistance test result [27]: 87
- Acetone resistance test result [28]: 84
- Acetone resistance test result [29]: 1.3
- Acetone resistance test result [30]: 8.8
- Acetone resistance test result [31]: 7.5
- Acetone resistance test result [32]: 100
